Data published in US11352350B2, “IRAK degraders and uses thereof” (Kymera Therapeutics, Inc., priority 2018, dated 2022).
Like-named read-outs stand apart in the source and are kept apart here.

Key:
TMD8 tumor cells = test: TMD8 large B lymphoma xenograft model in C.B. 17 SCID mice; assay type: in vivo, mouse; details: FIG. 6 A-C
Experimental: Cell Culture: The OCI-LY10 or TMD8 tumor cells were maintained as suspension in RPMI1640 medium supplemented with 10% fetal bovine serum, 100 U/mL penicillin and 100 μg/mL streptomycin at 37° C. in an atmosphere of 5% CO2 in air. The tumor cells were routinely subcultured twice weekly by trypsin-EDTA treatment. The cells growing in an exponential growth phase were harvested and counted for tumor inoculation.
Animals: C.B. 17 SCID, female, 6-8 weeks, weighing approximately 16-18 g were used. Animals were housed and maintained according to IACUC protocols. […]
Assignment to Groups: Before commencement of treatment, all animals were weighed and the tumor volumes were measured. […]
Observation: After tumor inoculation, the animals were checked daily for morbidity and mortality. […] Mortality and observed clinical signs were recorded for individual animals in detail.
Data Collection: Tumor volumes were measured in two dimensions using a caliper, and the volumes were expressed in mm^3 using the formula: “V=(L×W×W)/2, where V is tumor volume, L is tumor length (the longest tumor dimension) and W is tumor width (the longest tumor dimension perpendicular to L).
At termination: At pre-determined time points based on study design, animals were humanely sacrificed by CO2. […] Compound was determined in tumor and plasma using LC/MS with calibrated standards.

BALB/c mice = test: MSU crystal-induced inflammatory cell infiltration into six-day air pouch (gout model); assay type: in vivo, mouse; details: orally dosed; FIG. 15
Experimental: Animals: BALB/c mice, male, 5-6 weeks, weighing approximately 19-23 g were used. Animals were housed and maintained according to IACUC protocols.
Air Pouch: Each mouse was anesthetized and injected with 6 mL of sterile air subcutaneously (SC) at the nape of the neck and the injection site was sealed with flexible colloidon to create an air pouch. Three days later, the mice were injected with 3 mL of sterile air SC at the same site and the injection site was sealed with flexible colloidon.
Preparation of MSU Crystals: 10 g uric acid (Sigma, Cat. U2625, lot BCBM5312V) was heated to 60° C. in 2 L purified water, containing 5.8 mL 10 N NaOH. The pH of the heated mixture was adjusted to 8.9, yielding a clear solution which was stored overnight at 4-8° C. to allow MSU crystals to form and precipitate. The MSU crystals were washed three times with 1 L purified water and stored at 37° C. to dry.
Formulation of Degrader: 0.5% CMC/0.25% Tween-80 was prepared by dissolving 0.5 g carboxymethylcellulose (Sigma, Cat. C4888, lot 101K0185) in 100 mL de-ionized water followed by the addition of 0.25 mL Tween-80 (Sigma, Cat. P1754, lot 073K0064). […]
Termination, Cell Collection and Data: Four hours after MSU/saline injection, the mice were anesthetized and humanely exsanguinated. […] The air pouch was gently massaged, the contents immediately removed, and the exudate volume recorded. […]

OCI-LY10 = test: CTG Cell Viability Assay - OCI-LY10; assay type: cell-based, human
How it was run: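 OCI-LY10 cells exposed to 9-dose, 1:3 dilutions from 10 μM top (0.2% DMSO) for 4 days at 37° C, 5% CO2. Viability by CellTiter-Glo luminescence; IC50 from three-parameter logistic fit.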

OCI-LY19 = OCI-LY19 viability, CTG; assay type: cell-based; details: Homo sapiens, OCI-LY19

Row | SMILES | activity in TMD8 xenograft model (TMD8 tumor cells) | IL-1β in plasma (BALB/c mice) | cytotoxicity in OCI-LY10 lymphoma line (OCI-LY10; FIG. 5) | IC50 (OCI-LY10; Homo sapiens, OCI-Ly10, 96 h, OCI-LY10, 4 days, read-out: CTG Cell Viability Assay - OCI-LY10: Average external-IC50) | IC50 (OCI-LY19; MYD88 WT Lines, read-out: OCI-LY19 Viability, CTG IC50) | IC50 (OCI-LY19; MYD88 WT, read-out: OCI-LY19 CTG IC50)
1 | CN(CCCOCCCc1cccc2c1n(C)c(=O)n2C1CCC(=O)NC1=O)C[C@H]1CC[C@H](n2cc(NC(=O)c3coc(-c4ccnc(NCC5CC5)c4)n3)c(C(F)F)n2)CC1 (mixture of isomers) [I-30, 2-[2-(Cyclopropylmethylamino)-4-pyridyl]-N-[3-(difluoromethyl)-1-[4-[[3-[3-[1-(2,6-dioxo-3-piperidyl)-3-methyl-2-oxo-benzimidazol-4-yl]propoxy]propyl-methyl-amino]methyl]cyclohexyl]pyrazol-4-yl] oxazole-4-carboxamide] | active | dose-dependent decrease in IL-1β | cytotoxic | 0.1 to 0.5 µM | – | –
2 | CN(C[C@H]1CC[C@H](n2cc(NC(=O)c3coc(-c4ccnc(NCC5CC5)c4)n3)c(C(F)F)n2)CC1)C1CCN(Cc2cccc3c2n(C)c(=O)n3C2CCC(=O)NC2=O)CC1 (stereo partly drawn) [I-75, 2-(2-((cyclopropylmethyl)amino)pyridin-4-yl)-N-(3-(difluoromethyl)-1-((1r,4r)-4-(((1-((1-(2,6-dioxopiperidin-3-yl)-3-methyl-2-oxo-2,3-dihydro-1H-benzo[d]imidazol-4-yl)methyl)piperidin-4-yl)(methyl)amino)methyl)cyclohexyl)-1H-pyrazol-4-yl)oxazole-4-carboxamide] | – | – | – | – | 0.48 µM | 0.48 µM
